Test results published in patent US12168763B2, “Microorganisms and methods for reducing bacterial contamination” (Melio Peptide Systems Inc., priority 2020, dated 2024).

Legend:
[1] = system: Lactobacillus amylovorus; experiment: Soft-agar overlay screen of peptide-expressing yeast, other lactic acid bacteria; assay type: cell-based; conditions: sometimes weak
[2] = system: Lactobacillus casei; experiment: as above; assay type: cell-based; conditions: sometimes weak
[3] = system: Leuconostoc mesenteroides subsp. mesenteroides; experiment: as above; assay type: cell-based
[4] = system: Lactobacillus delbrueckii subsp. delbrueckii; experiment: as above; assay type: cell-based
[5] = system: Lactococcus lactis subsp. cremoris; experiment: as above; assay type: cell-based
[6] = system: Pediococcus acidilactici; experiment: as above; assay type: cell-based
[7] = system: Pediococcus damnosus; experiment: as above; assay type: cell-based
[8] = system: Lactobacillus plantarum; experiment: as above; assay type: cell-based
[9] = system: Lactobacillus brevis; experiment: as above; assay type: cell-based
[10] = system: L. reuteri CCUG 32624; experiment: Soft-agar overlay screen of peptide-expressing yeast (BY4742)
[11] = system: P. pentosaceus NCCB 31016; experiment: as above
[12] = system: E. faecium NCCB 86023; experiment: as above
[13] = system: W. confusa CCUG30113; experiment: as above
[14] = system: W. confusa CCUG30943; experiment: as above
[15] = system: L. lactis NCCB 26066; experiment: as above
[16] = system: L. delbrueckii CCUG 34222; experiment: as above
[17] = system: L. fermentum CCUG 72619; assay type: cell-based, Lactobacillus fermentum
[18] = system: L. delbrueckii; experiment: Small-scale mock ethanol fermentation contaminated with L. delbrueckii; assay type: cell-based, Lactobacillus delbrueckii; conditions: 72 hours; contamination OD600 0.00005-0.05; virginiamycin 2 mg/L
Method: (§1) Small-scale mock ethanol fermentations were carried out in 2 mL microcentrifuge tubes with a venting hole in the cap made with a 30 gauge needle. Starter cultures of yeast were grown in YPD at 30° C. with agitation. Starter cultures of L. fermentum CCUG 72619 were grown in MRS at 37° C. without agitation. […] . Control fermentations contained 2 mg/L virginiamycin. The fermentations were incubated at 30° C. without agitation for 72 hours and then analyzed by HPLC.
(§2) . M2 wild-type with and without virginiamycin, M2-pPedA, M2-pPedA-K1A, M2-pPedA-K1A/T22A, and M2-pPedA-K1T were compared (FIGS. 14A-14D, 15A-15D). […] . The pediocin-expressing strains were not effective at completely preventing the lactic acid production by L. delbrueckii or P. pentosaceus. […] .

[19] = system: P. pentosaceus; experiment: Small-scale mock ethanol fermentation contaminated with P. pentosaceus; assay type: cell-based, Pediococcus pentosaceus; conditions: 72 hours; contamination OD600 0.00005-0.05; virginiamycin 2 mg/L
Method: as §1, §2

Row | Substance | Antibacterial activity against Lactobacillus amylovorus [1] | Antibacterial activity against Lactobacillus casei [2] | Antibacterial activity against Leuconostoc mesenteroides subsp. mesenteroides [3] | Antibacterial activity against Lactobacillus delbrueckii subsp. delbrueckii [4] | Antibacterial activity against Lactococcus lactis subsp. cremoris [5] | Antibacterial activity against Pediococcus acidilactici [6] | Antibacterial activity against Pediococcus damnosus [7] | Antibacterial activity against Lactobacillus plantarum [8] | Antibacterial activity against Lactobacillus brevis [9] | Inhibition, L. reuteri CCUG 32624 [10] | Growth inhibition zones of P. pentosaceus ([11]; FIG. 7, BY4742 with pHVXU-pedA, 30° C., 1 day) | Inhibition, P. pentosaceus NCCB 31016 ([11]; soft-agar overlay, peptide-expressing yeast) | Inhibition, E. faecium NCCB 86023 [12] | Inhibition, W. confusa CCUG30113 [13] | Inhibition, W. confusa CCUG30943 [14] | Inhibition, L. lactis NCCB 26066 [15] | Inhibition, L. delbrueckii CCUG 34222 [16] | Variability in residual glucose [17] | Lactic acid production by L. delbrueckii [18] | Lactic acid production by P. pentosaceus [19]
1 | Pediocin PA-1 from [Pediococcus acidilactici] (KYYGNGVTCGKHSCSVDWGKATTCIINNGAMAWATGGHQGNHKC; listed as Pediococcus acidilactici) | showed some antibacterial activity | showed some antibacterial activity | showed antibacterial activity | showed antibacterial activity | showed antibacterial activity | showed antibacterial activity | showed antibacterial activity | showed antibacterial activity | showed antibacterial activity | − | Growth inhibition zones of P. pentosaceus are observable | + | + | − | − | + | + |  |  | 
2 | virginiamycin |  |  |  |  |  |  |  |  |  |  |  |  |  |  |  |  |  | tended to be reduced | effective at preventing the lactic acid production | effective at preventing the lactic acid production
